Experimental data from ChEMBL document CHEMBL5727654 (2020).

Molecular target: T1, Signal transducer and activator of transcription 1-alpha/beta (Homo sapiens, UniProt P42224)
T1 sequence (P42224 whole entry): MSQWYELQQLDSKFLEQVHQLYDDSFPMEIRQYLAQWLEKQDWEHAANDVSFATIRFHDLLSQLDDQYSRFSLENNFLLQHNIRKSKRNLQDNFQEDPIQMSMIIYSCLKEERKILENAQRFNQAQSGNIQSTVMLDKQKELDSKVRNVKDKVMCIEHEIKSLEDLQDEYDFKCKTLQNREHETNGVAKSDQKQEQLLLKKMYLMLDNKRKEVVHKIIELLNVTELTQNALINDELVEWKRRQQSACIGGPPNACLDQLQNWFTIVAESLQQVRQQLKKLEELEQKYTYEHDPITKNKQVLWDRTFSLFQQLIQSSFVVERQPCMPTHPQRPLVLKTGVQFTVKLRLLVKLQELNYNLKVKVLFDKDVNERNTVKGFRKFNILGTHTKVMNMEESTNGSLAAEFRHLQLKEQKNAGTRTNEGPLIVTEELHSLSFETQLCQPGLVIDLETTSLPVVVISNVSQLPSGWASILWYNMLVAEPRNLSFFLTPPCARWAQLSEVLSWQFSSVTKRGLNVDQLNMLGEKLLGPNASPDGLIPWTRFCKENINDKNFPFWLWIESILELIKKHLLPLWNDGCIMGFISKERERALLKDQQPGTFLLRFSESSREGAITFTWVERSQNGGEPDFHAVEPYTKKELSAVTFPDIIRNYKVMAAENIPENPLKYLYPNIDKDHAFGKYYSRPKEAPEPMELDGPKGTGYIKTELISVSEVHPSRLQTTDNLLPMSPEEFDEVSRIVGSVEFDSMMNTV
Test: Bioassay Evaluation: Compound samples (in 3-5 mg quantities) were evaluated in a variety of assays. All compound submissions were fully characterized (1H, 13C, IR, HRMS), satisfied purity criteria (≥95% LC/MC, ELS).
Assay type: single protein

IC50: 40.6 µM
Structure (SMILES): COc1ccc(C2=Nn3c(nnc3-c3[nH]nc4c3CCC4)SC2)cc1
